Where no end group is shown, it is not given here.
Assays:
healthy PBMC's = assay: PBMC activation, CD69 or CD71 by flow cytometry, normal human AB serum; assay type: cell-based; conditions: 40 μg/mL, 24 hours, RPMI plus 10% human AB serum
Procedure: FIG. 2A-B are a series of graphs illustrating effects of the full length peptide P28R and the 6 amino acid central sequence (32230, FFVKLS, SEQ ID NO: 1) in culture medium containing normal human AB serum. Activation is determined as percentage of cells with enhanced marker CD69 or CD71 using flow cytometry. PBMCs were incubated with the peptides (40 μg/mL) for 24 hours in RPMI plus 10% human AB serum. FIG. 2A illustrates the results of two experiments (420 and 422) performed for each peptide. FIG. 2B illustrates the results of two experiments (424 and 426) performed for each peptide.
P28R (SEQ ID NO: 2) can stimulate PBMC's from healthy controls in short term cultures when RPMI plus 10% normal human AB serum is used as culture medium. Truncations of P28R were also assessed for their ability to activate PBMC's. PBMCs were incubated with the peptides (40 μg/mL) for 24 hours in RPMI plus 10% human AB serum. PBMC activation was measured as percent cells with enhanced expression of either CD69 (FIG. 2A) or CD71 (FIG. 2B) using flow cytometry. Two experiments were performed for each peptide.
A test for direct stimulatory effects on immune cells was performed.

PBMCs [1] = assay: PBMC activation (CD69) in culture medium containing cancer sera; assay type: cell-based; conditions: sera from dogs with cancer or human patients with cancer instead of normal AB serum
Procedure: FIG. 3 is a graph illustrating a comparison of the full length peptide P28R and the 6 amino acid “P28 core” sequence (32230, FFVKLS, SEQ ID NO: 1) in culture medium containing sera from two different cancer patients (“human ca serum 1” 430 and (“human ca serum 2” 432).
Additionally, P28R and P28 core were tested for their ability to alleviate immunosuppression in cancer cells.

PBMCs [2] = assay: Direct binding to PBMCs (immunocytochemistry, rosetting of coated beads); conditions: immunocytochemistry or rosetting of coated beads

| Substance | PBMC activation (enhanced expression of CD69 or CD71) (healthy PBMC's) | PBMC activation (enhanced expression of CD69) (PBMCs [1]) | binding to PBMCs (PBMCs [2]) |
| --- | --- | --- | --- |
| FFVKLS (Peptide 32230) | did not activate healthy PBMC's | activated PBMCs |  |
| biotinylated P28R: biotinylated P28R (KKLDTFFVKLSLFTER; also: biotinylated, site not given here) |  |  | bind directly to PBMCs |
| peptide 32251: truncation of P28R, SEQ ID NO: 4 (KKLDTFFPKLSLFTER; Peptide 32251) | did not activate healthy PBMC's |  |  |

Source: US20210401926A1, “PHARMACEUTICAL FORMULATIONS OF PEPTIDE INHIBITORS” (CANIMGUIDE THERAPEUTICS AB, priority 2018, published 2021)
